Assay results as given in ChEMBL document CHEMBL1158587, “Chloramultiols A-F, lindenane-type sesquiterpenoid dimers from Chloranthus multistachys” (J Nat Prod, 2010).
pIC50: −log10 of the molar value.

Key:
Assay type in all cases: functional, cell-based
A549 = assay: Cytotoxicity against human A549 cells by MTT assay
HL-60 = assay: Cytotoxicity against human HL60 cells by MTT assay
PANC-1 = assay: Cytotoxicity against human PANC1 cells by MTT assay
SMMC-7721 = assay: Cytotoxicity against human SMMC7721 cells by MTT assay
SK-BR-3 = assay: Cytotoxicity against human SKBR3 cells by MTT assay

Measured: pIC50

CC1=C2C3=C4[C@](C)([C@@H]5C[C@@H]5[C@@]4(O)C[C@@H]4[C@]35OC(=O)C3=C5C[C@H]5[C@](O)(COC(=O)/C(C)=C/COC(=O)CCC(=O)OC3)[C@H]3C[C@H]3[C@]45C)[C@@H](O)[C@@]2(O)OC1=O [CHLORAMULTILIDE C]
< 5.00: A549 | HL-60 | PANC-1 | SMMC-7721 | SK-BR-3

C/C=C(\C)C(=O)OC[C@]1(O)[C@H]2C[C@H]2[C@]2(C)[C@@H]3C[C@@]4(O)C5=C(C6=C(C)C(=O)O[C@]6(O)[C@H](O)[C@@]5(C)[C@@H]5C[C@@H]54)[C@@]34OC(=O)C(CO)=C4C[C@@H]12 [CHLORAMULTILIDE D]
< 5.00: A549 | HL-60 | PANC-1 | SMMC-7721 | SK-BR-3

COC(=O)/C(C)=C1\C(=O)[C@H](O)[C@]2(C)C3=C([C@H]4C[C@H]42)[C@H](O)[C@@H]2[C@]4(OC(=O)C5=C4C[C@H]4[C@](O)(COC(=O)/C(C)=C/COC(=O)CCC(=O)OC5)[C@H]5C[C@H]5[C@]24C)[C@H]31 [CHLORAMULTIOL A]
< 5.00: A549 | HL-60 | PANC-1 | SMMC-7721 | SK-BR-3

CC1=C2C3=C4[C@](C)([C@@H]5C[C@@H]5[C@@]4(O)C[C@@H]4[C@]35OC(=O)C(CO)=C5C[C@H]3[C@](O)(CO)[C@H]5C[C@H]5[C@]43C)[C@@H](O)[C@@]2(O)OC1=O [CHLORAMULTIOL B]
< 5.00: A549 | HL-60 | PANC-1 | SMMC-7721 | SK-BR-3

C/C=C(\C)C(=O)OC[C@]1(O)[C@H]2C[C@H]2[C@]2(C)[C@@H]3C[C@@]4(O)C5=C(C6=C(C)C(=O)O[C@]6(OC)[C@H](O)[C@@]5(C)[C@@H]5C[C@@H]54)[C@@]34OC(=O)C(CO)=C4C[C@@H]12 [CHLORAMULTIOL C]
< 5.00: A549 | HL-60 | PANC-1 | SMMC-7721 | SK-BR-3

C/C=C(\C)C(=O)OC[C@]1(O)[C@H]2C[C@H]2[C@]2(C)[C@@H]3C[C@@]4(O)C5=C(C6=C(C)C(=O)O[C@]6(O)C(=O)[C@@]5(C)[C@@H]5C[C@@H]54)[C@@]34OC(=O)C(CO)=C4C[C@@H]12 [CHLORAMULTIOL D]
< 5.00: A549 | HL-60 | PANC-1 | SMMC-7721 | SK-BR-3

CC(=O)OC[C@@H]1[C@H]2C[C@H]2[C@]2(C)[C@@H]3C[C@@]4(O)C5=C(C6=C(C)C(=O)O[C@]6(O)[C@H](O)[C@@]5(C)[C@@H]5C[C@@H]54)[C@@]34OC(=O)C(CO)=C4C[C@@H]12 [CHLORAMULTIOL E]
< 5.00: A549 | HL-60 | PANC-1 | SMMC-7721 | SK-BR-3

CO[C@]12OC(=O)C(C)=C1C1=C3C(=C[C@@H]4[C@]15OC(=O)C1=C5C[C@H]5[C@](O)(COC(=O)/C(C)=C/COC(=O)CCC(=O)OC1)[C@H]1C[C@H]1[C@]45C)[C@H]1C[C@H]1[C@]3(C)[C@H]2O [CHLORAMULTIOL F]
< 5.00: A549 | HL-60 | PANC-1 | SMMC-7721 | SK-BR-3

COC(=O)[C@]1(C)CC2=C3C=C(C(=O)[C@H](O)[C@@]3(C)[C@@H]3C[C@H]23)[C@](C)(C(=O)OC)CC2=C3C=C1C(=O)[C@H](O)[C@@]3(C)[C@@H]1C[C@H]21 [Cycloshizukaol A]
< 5.00: A549 | HL-60 | PANC-1 | SMMC-7721 | SK-BR-3

C/C=C(\C)C(=O)OCC1=C2C[C@H]3[C@H](O)[C@H]4C[C@H]4[C@]3(C)[C@@H]3C[C@@]4(O)C5=C(/C(=C(/C)C(=O)OC)C(=O)[C@H](O)[C@@]5(C)[C@@H]5C[C@@H]54)[C@]23OC1=O [SHIZUKAOL C]
< 5.00: A549 | HL-60 | PANC-1 | SMMC-7721 | SK-BR-3

COC(=O)/C(C)=C1/C(=O)[C@H](O)[C@]2(C)C3=C1[C@]14OC(=O)C(COC(C)=O)=C1C[C@H]1C[C@H]5C[C@H]5[C@]1(C)[C@@H]4C[C@]3(O)[C@H]1C[C@H]12 [SHIZUKAOL D]
< 5.00: A549 | HL-60 | PANC-1 | SMMC-7721 | SK-BR-3

CC1=C2C3=C4[C@@](C)(C(=O)[C@@]2(O)OC1=O)[C@@H]1C[C@@H]1[C@@]4(O)C[C@@H]1[C@]32OC(=O)C3=C2C[C@H]2[C@](O)(COC(=O)/C(C)=C/COC(=O)CCC(=O)OC3)[C@H]3C[C@H]3[C@]12C [SPICACHLORANTIN B]
< 5.00: A549 | HL-60 | PANC-1 | SMMC-7721 | SK-BR-3
